Results from PubChem BioAssay AID248 (DTP/NCI, 2004).
Toxic doses and inconclusive results are not listed. No stated cut-off is given here; in the data, active means T/C of 150% or more; inactive means T/C below 125%.

System: L1210 leukemia ip in BDF1 mice, survival T/C
Test: NCI In Vivo Anticancer Drug Screen. Data for tumor model L1210 Leukemia (intraperitoneal) in B6D2F1 (BDF1) mice
Conditions: higher = longer survival
In short: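 In this screen, tumor-bearing mice given compound are compared to those given vehicle, and their survival values are reported as a treated-to-control quotient.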

[1] = endpoint: mean survival time, dose: 100.0 mg/kg/injection, schedule: Q01DX001 (ip), vehicle: saline

Measured: T/C

COc1ccc(C2=C(c3ccccc3)C(c3ccccc3)=C(c3ccc(OC)cc3)C2=O)cc1
inactive: endpoint: mean survival time, dose: 100.0 mg/kg/injection, schedule: Q01DX001 (ip), vehicle: carboxymethylcellulose (CMC) 89 % of control | endpoint: mean survival time, dose: 200.0 mg/kg/injection, schedule: Q01DX001 (ip), vehicle: carboxymethylcellulose (CMC) 89 % of control | endpoint: mean survival time, dose: 400.0 mg/kg/injection, schedule: Q01DX001 (ip), vehicle: carboxymethylcellulose (CMC) 91 % of control

CC(/C=C\C1CCCCC1)=C\C=C\C(C)=C\C=N\Nc1ccc([N+](=O)[O-])cc1[N+](=O)[O-]
inactive: endpoint: mean survival time, dose: 1.56 mg/kg/injection, schedule: Q01DX001 (ip), vehicle: saline with Tween-80 95 % of control | endpoint: mean survival time, dose: 3.13 mg/kg/injection, schedule: Q01DX001 (ip), vehicle: saline with Tween-80 95 % of control | endpoint: mean survival time, dose: 6.25 mg/kg/injection, schedule: Q01DX001 (ip), vehicle: saline with Tween-80 95 % of control | endpoint: mean survival time, dose: 50.0 mg/kg/injection, schedule: Q01DX001 (ip), vehicle: saline with Tween-80 89 % of control

O=C(NCc1ccncc1)Nc1ccccc1Cl
inactive: endpoint: mean survival time, dose: 100.0 mg/kg/injection, schedule: Q04DX002 (ip), vehicle: saline 97 % of control | endpoint: mean survival time, dose: 200.0 mg/kg/injection, schedule: Q04DX002 (ip), vehicle: saline 87 % of control

Cc1ccc(C)c(NC(=O)Nc2cccc(O)c2)c1
inactive: endpoint: mean survival time, dose: 100.0 mg/kg/injection, schedule: Q01DX009 (ip), vehicle: Klucel (hydroxypropylcellulose) (HPC) 102 % of control | endpoint: mean survival time, dose: 100.0 mg/kg/injection, schedule: Q04DX002 (ip), vehicle: Klucel (hydroxypropylcellulose) (HPC) 109 % of control | endpoint: mean survival time, dose: 200.0 mg/kg/injection, schedule: Q01DX009 (ip), vehicle: Klucel (hydroxypropylcellulose) (HPC) 103 % of control | endpoint: mean survival time, dose: 200.0 mg/kg/injection, schedule: Q04DX002 (ip), vehicle: Klucel (hydroxypropylcellulose) (HPC) 102 % of control | endpoint: mean survival time, dose: 400.0 mg/kg/injection, schedule: Q01DX009 (ip), vehicle: Klucel (hydroxypropylcellulose) (HPC) 94 % of control | endpoint: mean survival time, dose: 400.0 mg/kg/injection, schedule: Q04DX002 (ip), vehicle: Klucel (hydroxypropylcellulose) (HPC) 109 % of control

CCOC(=O)C(C)(C(=O)OCC)c1cccc2ccccc12
inactive: endpoint: mean survival time, dose: 100.0 mg/kg/injection, schedule: Q01DX001 (ip), vehicle: other 98 % of control | endpoint: mean survival time, dose: 100.0 mg/kg/injection, schedule: Q04DX003 (ip), vehicle: other 93 % of control | endpoint: mean survival time, dose: 200.0 mg/kg/injection, schedule: Q01DX001 (ip), vehicle: other 102 % of control | endpoint: mean survival time, dose: 200.0 mg/kg/injection, schedule: Q04DX003 (ip), vehicle: other 100 % of control | endpoint: mean survival time, dose: 400.0 mg/kg/injection, schedule: Q01DX001 (ip), vehicle: other 96 % of control | endpoint: mean survival time, dose: 400.0 mg/kg/injection, schedule: Q04DX003 (ip), vehicle: other 94 % of control

Oc1ccccc1N=Cc1ccccc1
inactive: [1] 94 % of control | endpoint: mean survival time, dose: 200.0 mg/kg/injection, schedule: Q01DX001 (ip), vehicle: saline 100 % of control | endpoint: mean survival time, dose: 400.0 mg/kg/injection, schedule: Q01DX001 (ip), vehicle: saline 103 % of control

COc1cccc(CN(C)C)c1C(C)(C)O
inactive: endpoint: mean survival time, dose: 50.0 mg/kg/injection, schedule: Q01DX001 (ip), vehicle: saline 97 % of control | [1] 95 % of control

CCCCCCCC(=O)OCC(=O)[C@]1(O)Cc2c(O)c3c(c(O)c2[C@@H](OC2CC(N)C(O)C(C)O2)C1)C(=O)c1c(OC)cccc1C3=O (some centres undefined)
inactive: endpoint: median survival time, dose: 0.25 mg/kg/injection, schedule: Q03HX024 (ip), vehicle: water 110 % of control | endpoint: median survival time, dose: 1.0 mg/kg/injection, schedule: Q03HX024 (ip), vehicle: water 109 % of control | endpoint: median survival time, dose: 1.0 mg/kg/injection, schedule: Q04DX003 (ip), vehicle: water 115 % of control | endpoint: median survival time, dose: 2.0 mg/kg/injection, schedule: Q03HX008 (ip), vehicle: water 114 % of control | endpoint: median survival time, dose: 2.0 mg/kg/injection, schedule: Q04DX003 (ip), vehicle: water 124 % of control | endpoint: median survival time, dose: 2.5 mg/kg/injection, schedule: Q01DX001 (ip), vehicle: water 121 % of control | endpoint: median survival time, dose: 2.5 mg/kg/injection, schedule: Q08DX002 (ip), vehicle: water 101 % of control | endpoint: median survival time, dose: 4.0 mg/kg/injection, schedule: Q01DX009 (ip), vehicle: water 88 % of control | endpoint: median survival time, dose: 4.0 mg/kg/injection, schedule: Q04DX003 (ip), vehicle: water 111 % of control | endpoint: median survival time, dose: 5.0 mg/kg/injection, schedule: Q08DX002 (ip), vehicle: water 121 % of control | endpoint: median survival time, dose: 10.0 mg/kg/injection, schedule: Q01DX001 (ip), vehicle: water 121 % of control | endpoint: median survival time, dose: 10.0 mg/kg/injection, schedule: Q08DX002 (ip), vehicle: water 121 % of control | endpoint: median survival time, dose: 20.0 mg/kg/injection, schedule: Q08DX002 (ip), vehicle: water 96 % of control
